# Tests used:
# [1] = tested on: Sulfide-Producing Bacteria; conditions: reported biocide treatment levels; cited from earlier work
# [2] = tested on: yeast and mold; experiment: Mold and yeast counts in treated contaminated metalworking fluid samples; type: cell-based
# Procedure: (§1) A used metalworking fluid from a Midwest automotive plant and a soluble oil having a high sulfate content were used to prepare synthetic effluent by combining about 200 ml of the oil with about four gallons (about 15 L) of water and one gallon (about 3.84 L) of the contaminated metal working fluid. The mixture was allowed to stand for about ten days and smelled of hydrogen sulfide by the end of this period. The mixture was then stirred and 15 samples (about 500 mL each) were removed and placed in separate containers. The containers were allowed to stand, open to the air, for about 4 additional days, after which time the aerobic bacterial count in each of the sample was measured using Biosan BF test strips. All of the samples contained >10′ bacteria/mL and smelled of hydrogen sulfide, indicating the presence of anaerobic bacteria, as well. The 15 samples, at neutral pH, were then individually treated with different biocides and combinations of biocides with the enzymatic composition of Example 1. The bacterial and yeast/mold counts in each sample were monitored over about 14 days.
# [3] = tested on: bacteria; experiment: Bacterial counts in treated contaminated metalworking fluid samples; type: cell-based
# Procedure: as §1
# [4] = tested on: SRB; experiment: Hydrogen sulfide from containers with SRB-contaminated sugar beet pond water
# Procedure: A leachate from a sugar beet pond contaminated with SRB was fed into three 5-gallon containers filled with a nutrient source, sulfate and water. The contents in each container consisted of about 500 mL of SRB-contaminated sugar beet pond water, about 3.84 liters of vinegar (about 5% acetic acid content) about 450 mL of 0.5 N sulfuric acid, about 150 g of sodium hydroxide to adjust the pH to about 6.8, the normal pH and enough additional water to achieve a total volume of about 5 gallons. Nitrogen gas was continuously passed through the each container to eliminate any oxygen and to provide a gas flow in which to measure hydrogen sulfide generated in each container. About 500 ppm of a 10% solution of sodium hypochlorite was added to one of the reactors. An identical amount hypochlorite was added to another reactor, along with about 500 ppm of the composition of Example 1. About 500 ppm of the composition of Example 1 was added to the third container (without hypochlorite). The hydrogen sulfide level in the nitrogen gas stream from each container was monitored over time. The container treated only with the composition of the invention went to zero hydrogen sulfide production over about seven days, and stayed at zero for about four days thereafter. The container treated with bleach alone went to zero within six days and remained at zero for less than one day. […] The hydrogen sulfide concentration from the container treated with both hypochlorite and the composition of Example 1 fell to zero over about 13 days and remained at zero for greater than eight days. From the data in FIG. 4, it is clear that the enzymatically active compositions of the invention can work cooperatively with inexpensive biocidal compositions such as hypochlorite to effectively extend the useful lifetime of inexpensive biocides such as hypochlorite.
# [5] = tested on: Desulfovibrio vulgaris; experiment: Sulfide concentration in nitrogen stream from Desulfovibrio vulgaris cultures; type: cell-based; conditions: about 10 mM sodium nitrate; decrease after about 9 hours
# Procedure: Laboratory studies were conducted by growing cultures of Desulfovibrio vulgaris, available from NCIMB Ltd, Aberdeen, Scotland, UK as NCIMB 8303 (see Postgate, J. R., The Sulfate-Reducing Bacteria, 2nd Ed., Cambridge University Press, Cambridge; 1984) in 100 mL aliquots of mCSB containing 12 mM sodium sulfate, 30 mM sodium lactate and 10 mM sodium nitrate in one-liter serum bottles sealed with butyl rubber stoppers, which were flushed with nitrogen and autoclaved at about 120° C. prior to use. A 2% inoculum of freshly prepared D. vulgaris culture was added to the medium in each bottle and incubated at about 30° C. Each culture was grown to mid-log phase to achieve a sulfide concentration of about 12.2±1.4 mM before adding about 25 mL of an aqueous 100 ppm solution of the enzymic composition of Example 1 to each culture. Each culture was then sparged with 99.99% pure nitrogen gas and the pH was adjusted to 6.4 using a dilute solution of nitric acid. The sulfide concentration in the nitrogen stream from each culture bottle was monitored as a function of time.
# [6] = about 500 ppm of each agent (hypochlorite as 10% solution), pH about 6.8
Compound,Minimum Concentration that prevents sulfide production [1],Mold and Yeast Counts ([2]; Day 0),Mold and Yeast Counts ([2]; Day 1),Mold and Yeast Counts ([2]; Day 3),Mold and Yeast Counts ([2]; Day 4),Mold and Yeast Counts ([2]; Day 6),Mold and Yeast Counts ([2]; Day 8),Mold and Yeast Counts ([2]; Day 10),Mold and Yeast Counts ([2]; Day 12),Mold and Yeast Counts ([2]; Day 14),Bacterial Counts ([3]; Day 0),Bacterial Counts ([3]; Day 1),Bacterial Counts ([3]; Day 3),Bacterial Counts ([3]; Day 4),Bacterial Counts ([3]; Day 6),Bacterial Counts ([3]; Day 8),Bacterial Counts ([3]; Day 10),Bacterial Counts ([3]; Day 12),Bacterial Counts ([3]; Day 14),other results
O=CCCCC=O [Glutaraldehyde],500 mg/L,–,–,–,–,–,–,–,–,–,–,–,–,–,–,–,–,–,–,–
[O]=[Mo](=[O])([O-])[O-] [Molybdate],120 mg/L,–,–,–,–,–,–,–,–,–,–,–,–,–,–,–,–,–,–,–
O=NO [Nitrite],230 mg/L,–,–,–,–,–,–,–,–,–,–,–,–,–,–,–,–,–,–,–
"OCCN1CN(CCO)CN(CCO)C1 [Sample 3, hexahydro-1,3,5-tris(2-hydroxyethyl)-s-triazine]",–,10^4,0,0,0,10,10,10^3,10^4,10^3,>10^7 bacteria/mL,<100 bacteria/mL,<100 bacteria/mL,100 bacteria/mL,1000 bacteria/mL,10^4 bacteria/mL,>10^7 bacteria/mL,10^6 bacteria/mL,>10^7 bacteria/mL,–
"OCCN1CN(CCO)CN(CCO)C1 [Sample 4, hexahydro-1,3,5-tris(2-hydroxyethyl)-s-triazine]",–,10^3,0,0,0,0,100,10,100,100,>10^7 bacteria/mL,<100 bacteria/mL,100 bacteria/mL,100 bacteria/mL,1000 bacteria/mL,10^5 bacteria/mL,>10^7 bacteria/mL,>10^7 bacteria/mL,>10^7 bacteria/mL,–
"CCCCNC(=O)OCC#CI [Sample 7, 3-iodo-2-propynyl butyl carbamate]",–,10^3,0,0,0,0,100,10,100,10^3,>10^7 bacteria/mL,<100 bacteria/mL,<100 bacteria/mL,100 bacteria/mL,100 bacteria/mL,100 bacteria/mL,1000 bacteria/mL,10^4 bacteria/mL,10^5 bacteria/mL,–
"CCCCNC(=O)OCC#CI [Sample 8, 3-iodo-2-propynyl butyl carbamate]",–,10^4,0,0,0,100,10^3,10^3,10^3,10^3,>10^7 bacteria/mL,<100 bacteria/mL,<100 bacteria/mL,100 bacteria/mL,100 bacteria/mL,100 bacteria/mL,10^4 bacteria/mL,10^5 bacteria/mL,>10^7 bacteria/mL,–
"OCl [hypochlorite, sodium hypochlorite]",–,–,–,–,–,–,–,–,–,–,–,–,–,–,–,–,–,–,–,"time hydrogen sulfide stayed at zero [4, 6]: less than one; time to zero hydrogen sulfide production [4, 6]: six; additional suppression of hydrogen sulfide production ([4]; after another identical dose of hypochlorite): less than one"
O=[N+]([O-])[O-].[Na+] [sodium nitrate],–,–,–,–,–,–,–,–,–,–,–,–,–,–,–,–,–,–,–,extent of decrease in sulfide production relative to the decrease observed with the composition of Example 1 [5]: 10-15%
Benzalkonium chloride,50 mg/L,–,–,–,–,–,–,–,–,–,–,–,–,–,–,–,–,–,–,–
tetrakis(hydroxymethyl)phosphonium sulfate [Sample 13],–,10^3,0,0,0,0,100,10,100,10^3,>10^7 bacteria/mL,<100 bacteria/mL,<100 bacteria/mL,100 bacteria/mL,1000 bacteria/mL,1000 bacteria/mL,>10^5 bacteria/mL,10^6 bacteria/mL,>10^7 bacteria/mL,–
tetrakis(hydroxymethyl)phosphonium sulfate [Sample 14],–,10^4,0,0,0,100,10^3,10^3,10^3,10^3,>10^7 bacteria/mL,<100 bacteria/mL,100 bacteria/mL,100 bacteria/mL,1000 bacteria/mL,10^5 bacteria/mL,>10^7 bacteria/mL,>10^7 bacteria/mL,>10^7 bacteria/mL,–

# From US8535661B2, “Enzymatically active compositions for suppressing sulfide generation and methods of use thereof” (LCP Tech Holdings LLC, priority 2007, dated 2013)
